In patent EP4603105A1, “PHARMACEUTICAL COMPOSITION CONTAINING CYCLIC COMPOUND HAVING SELECTIVE KRAS INHIBITORY EFFECT AGAINST HRAS AND NRAS” (CHUGAI SEIYAKU KABUSHIKI KAISHA, priority 2022, dated 2024):
Like-named read-outs stand apart in the source and are kept apart here. Where a SMILES comes first, the peptide text is derived from it. Bridges are numbered along the chain shown (N, C = ends). [ ]: non-standard residue; d: D form. The star is where a group is joined. hPhe(3-Cl-4-CF3) = N[C@@H](CCc1ccc(C(F)(F)F)c(Cl)c1)C(=O)O; NPrPhe(4-CF3) = CCCN[C@@H](Cc1ccc(C(F)(F)F)cc1)C(=O)O; NMeGly(cPent) = CN[C@H](C(=O)O)C1CCCC1; Pro(4,4-F2) = O=C(O)[C@@H]1CC(F)(F)CN1; Ac4c(3,3-Me2) = CC1(C)CC(N)(C(=O)O)C1; Hyp = O=C(O)[C@@H]1C[C@@H](O)CN1; NMeD = CN[C@@H](CC(=O)O)C(=O)O; NMeL = CN[C@@H](CC(C)C)C(=O)O; Morpholide = C1CN(*)CCO1; Ac5c = NC1(C(=O)O)CCCC1; Aze = O=C(O)[C@@H]1CCN1; Ac4c = NC1(C(=O)O)CCC1; Sar = CNCC(=O)O

Legend:
HRAS wild-type protein = HRAS wild-type protein (Homo sapiens, UniProt P01112); experiment: Binding to HRAS by surface plasmon resonance (SPR), KD and KD ratio to KRAS
HRAS wild-type protein, sequence (P01112 whole entry): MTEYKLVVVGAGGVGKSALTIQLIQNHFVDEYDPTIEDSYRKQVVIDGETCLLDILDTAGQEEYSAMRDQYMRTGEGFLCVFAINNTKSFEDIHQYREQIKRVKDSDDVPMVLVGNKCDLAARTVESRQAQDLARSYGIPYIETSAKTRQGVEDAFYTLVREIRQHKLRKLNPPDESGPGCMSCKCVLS
Outline: (§1)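 Biotinylated GDP-bound RAS was captured at about 100–300 RU. Running buffer: HBS pH 7.4, 10 mM MgCl2, 10 µM GDP, 1 mM DTT, 0.01% Tween 20, 4% DMSO.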

[1] = tested on: human lung cancer strain NCI-H441; format: cell-based
Outline: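 Step one: dispense the test compound in serial DMSO dilutions. Step three: add the reagent and measure […].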

[2] = target: GDP-bound NRAS wild-type protein (Homo sapiens, UniProt P01111); experiment: Binding to NRAS by surface plasmon resonance (SPR), KD and KD ratio to KRAS
GDP-bound NRAS wild-type protein, sequence (P01111 whole entry): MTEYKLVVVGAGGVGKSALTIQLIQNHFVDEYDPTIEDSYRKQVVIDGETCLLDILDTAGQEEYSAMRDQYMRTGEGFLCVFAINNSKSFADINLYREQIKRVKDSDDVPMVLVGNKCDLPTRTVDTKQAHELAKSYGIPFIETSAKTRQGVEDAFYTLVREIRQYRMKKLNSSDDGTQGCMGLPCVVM
Outline: as §1

[3] = ratio of the KD value with respect to HRAS wild-type protein to the KD value with respect to KRAS
[4] = ratio of the KD value with respect to GDP-bound NRAS wild-type protein to the KD value with respect to KRAS
[5] = ratio of KD for HRAS wild-type protein to KD for KRAS
[6] = ratio of KD for GDP-bound NRAS wild-type protein to KD for KRAS

SMILES	IC50 [1] [nM]	IC50 ([1]; NCI-H441 cells, 4 days, CellTiter-Glo, read-out: NCl-H441 IC50) [nM]	HRAS /KRAS (HRAS wild-type protein; [3])	NRAS /KRAS [2, 4]	HRAS /KRAS (HRAS wild-type protein; [5])	NRAS /KRAS [2, 6]	HRAS /KRAS (HRAS wild-type protein; ratio of KD value for HRAS wild-type protein to KD value for KRAS (SPR))	NRAS /KRAS ([2]; ratio of KD value for GDP-bound NRAS wild-type protein to KD value for KRAS (SPR))
CCO[C@@H]1C[C@H]2C(=O)NC3(CCC3)C(=O)N(C)[C@@H](C3CCCC3)C(=O)N(C)[C@H](C(=O)N3CCOCC3)CC(=O)N(C)[C@@H](Cc3ccc(C)cc3)C(=O)N[C@@H]([C@@H](C)CC)C(=O)N(C)CC(=O)N(C)[C@H]3CCCCCN(C3=O)[C@@H](Cc3ccc(C(F)(F)F)cc3)C(=O)N(C)CC(=O)N[C@@H](CCc3cc(F)c(C(F)(F)F)c(F)c3)C(=O)N2C1 [PP0933]	150	–	–	–	B (a compound having 3 or more and less than 10 is denoted as B)	A (a compound having 10 or more and less than 20 is denoted as A)	–	–
CCCN1C(=O)CN(C)C(=O)CN(C)C(=O)[C@H]([C@@H](C)OCC)NC(=O)[C@H](CC(C)C)N(C)C(=O)C[C@@H](C(=O)N2CCOCC2)N(C)C(=O)[C@H](C2CCCC2)N(C)C(=O)C2(CC(C)(C)C2)NC(=O)[C@@H]2CCCN2C(=O)[C@H](CCc2ccc(C(F)(F)F)c(Cl)c2)NC(=O)CN(C)C(=O)[C@@H]1Cc1ccc(C(F)(F)F)cc1 [PP1964] ([NMeL]T(Et)[Sar][Sar][NPrPhe(4-CF3)][Sar][hPhe(3-Cl-4-CF3)]P[Ac4c(3,3-Me2)][NMeGly(cPent)][NMeD]-Morpholide; lactam N-11)	10.3	–	B (a compound having 3 or more and less than 10 is denoted as B)	B (a compound having 3 or more and less than 10 is denoted as B)	–	–	–	–
CCO[C@@H]1C[C@H]2C(=O)NC3(CCC3)C(=O)N(C)[C@@H](C3CCCC3)C(=O)N(C)[C@H](C(=O)N(C)C)CC(=O)N(C)[C@@H](CC3CCCC3)C(=O)N[C@@H]([C@@H](C)CC)C(=O)N(C)CC(=O)N(C)[C@H]3C/C=C\CCN(C3=O)[C@@H](Cc3ccc(C)cc3)C(=O)N(C)CC(=O)N[C@@H](CCc3cc(C)c(C(F)F)c(Cl)c3)C(=O)N2C1 [PP2677]	70.6	–	–	–	A (a compound having 10 or more and less than 20 is denoted as A)	A (a compound having 10 or more and less than 20 is denoted as A)	–	–
CCCO[C@@H]1C[C@H]2C(=O)NC3(CC(C)(C)C3)C(=O)N(C)[C@@H](C3CCCC3)C(=O)N(C)[C@H](C(=O)N(C)CC)CC(=O)N(C)[C@H]3CCCc4ccc(cc4)C[C@@H](C(=O)N(C)CC(=O)N[C@@H](CCc4ccc(Cl)c(Cl)c4)C(=O)N2C1)N1CC/C=C\C[C@@H](C1=O)N(C)C(=O)CN(C)C(=O)[C@H]([C@@H](C)CC)NC3=O [PP3089]	27	–	–	–	B (a compound having 3 or more and less than 10 is denoted as B)	B (a compound having 3 or more and less than 10 is denoted as B)	–	–
CCC[C@H]1C(=O)N[C@@H]([C@@H](C)CC)C(=O)N(C2CC2)CC(=O)N(C)[C@H]2C/C=C\CCN(C2=O)[C@@H](Cc2ccc(C)cc2)C(=O)N(C)CC(=O)N[C@@H](CCc2cc(C)c(C(F)F)c(Cl)c2)C(=O)N2C[C@H](OCC)C[C@H]2C(=O)NC2(CC(C)(C)C2)C(=O)N(C)[C@@H](C2CCCC2)C(=O)N(C)[C@H](C(=O)N(C)C)CC(=O)N1C [PP2875]	121	–	–	–	A (a compound having 10 or more and less than 20 is denoted as A)	A (a compound having 10 or more and less than 20 is denoted as A)	–	–
CCC[C@H]1C(=O)N[C@@H]([C@@H](C)CC)C(=O)N(C)CC(=O)N(C)[C@H]2C/C=C\CCN(C2=O)[C@@H](Cc2ccc(C(F)(F)F)cc2)C(=O)N(C)CC(=O)N[C@@H](CCc2ccc3ccn(C)c3c2)C(=O)N2C[C@H](OCC)C[C@H]2C(=O)NC2(CC(C)(C)C2)C(=O)N(C)[C@@H](C(CC)CC)C(=O)N(C)[C@H](C(=O)N(C)C)CC(=O)N1C [PP2912]	86	–	–	–	A (a compound having 10 or more and less than 20 is denoted as A)	AA (a compound having 20 or more is denoted as AA)	–	–
CCO[C@@H]1C[C@H]2C(=O)NC3(CCC3)C(=O)N(C)[C@@H](C(C)C)C(=O)N(C)[C@H](C(=O)N(C)C)CC(=O)N(C)[C@@H](CC)C(=O)N[C@@H]([C@@H](C)CC)C(=O)N(C)CC(=O)N(C)[C@H]3C/C=C\CCN(C3=O)[C@@H](Cc3ccc(C(F)(F)F)cc3)C(=O)N(C)CC(=O)N[C@@H](CCc3cc(F)c(C(F)(F)F)c(F)c3)C(=O)N2C1 [PP1088]	195	–	–	–	A (a compound having 10 or more and less than 20 is denoted as A)	A (a compound having 10 or more and less than 20 is denoted as A)	–	–
CC[C@H](C)[C@@H]1NC(=O)[C@H](CC(C)C)N(C)C(=O)C[C@@H](C(=O)N2CCOCC2)N(C)C(=O)[C@H](C2CCCC2)N(C)C(=O)C2(CCCC2)NC(=O)[C@@H]2CCCN2C(=O)[C@H](CCc2cc(F)c(C(F)(F)F)c(F)c2)NC(=O)CN(C)C(=O)[C@H](Cc2ccc(C(F)(F)F)cc2)N2CCCC[C@@H](C2=O)N(C)C(=O)[C@H](C)NC1=O [PP0543]	41.5	–	B (a compound having 3 or more and less than 10 is denoted as B)	B (a compound having 3 or more and less than 10 is denoted as B)	–	–	–	–
CCO[C@@H]1C[C@H]2C(=O)NC3(CC(C)(C)C3)C(=O)N(C)[C@@H](C3CCCC3)C(=O)N(C)[C@H](C(=O)N(C)C)CC(=O)N(C)[C@@H](CC(C)C)C(=O)N[C@@H]([C@@H](C)CC)C(=O)N(C)CC(=O)N(C)[C@H]3C/C=C\CCN(C3=O)[C@@H](Cc3ccc(OC)cc3)C(=O)N(C)CC(=O)N[C@@H](CCc3ccc(C(F)(F)F)c(OC)c3)C(=O)N2C1 [PP2693]	–	10.4	–	–	B (a compound having 3 or more and less than 10 is denoted as B)	A (a compound having 10 or more and less than 20 is denoted as A)	–	–
CCCN1C(=O)CN(C)C(=O)CN(C)C(=O)[C@H]([C@@H](C)CC)NC(=O)[C@H](CC(C)C)N(C)C(=O)C[C@@H](C(=O)N2CCOCC2)N(C)C(=O)[C@H](C2CCCC2)N(C)C(=O)C2(CCCC2)NC(=O)[C@@H]2CCN2C(=O)[C@H](CCc2ccc(C(F)(F)F)c(Cl)c2)NC(=O)CN(C)C(=O)[C@@H]1Cc1ccc(C(F)(F)F)cc1 [PP0260] ([NMeL]I[Sar][Sar][NPrPhe(4-CF3)][Sar][hPhe(3-Cl-4-CF3)][Aze][Ac5c][NMeGly(cPent)][NMeD]-Morpholide; lactam N-11)	16.8	–	–	–	C (A compound having a KD ratio of 0.1 or more and less than 3 is denoted as C)	B (a compound having 3 or more and less than 10 is denoted as B)	–	–

Further lines, with some results ahead:

IC50 [1] [nM]	IC50 ([1]; NCI-H441 cells, 4 days, CellTiter-Glo, read-out: NCl-H441 IC50) [nM]	SMILES	HRAS /KRAS (HRAS wild-type protein; [3])	NRAS /KRAS [2, 4]	HRAS /KRAS (HRAS wild-type protein; [5])	NRAS /KRAS [2, 6]	HRAS /KRAS (HRAS wild-type protein; ratio of KD value for HRAS wild-type protein to KD value for KRAS (SPR))	NRAS /KRAS ([2]; ratio of KD value for GDP-bound NRAS wild-type protein to KD value for KRAS (SPR))
1.7	–	CCCN1C(=O)[C@@H]2CCN2C(=O)CN(C)C(=O)[C@H]([C@@H](C)CC)NC(=O)[C@H](CC(C)C)N(C)C(=O)C[C@@H](C(=O)N(C)C)N(C)C(=O)[C@H](C2CCCC2)N(C)C(=O)C2(CCC2)NC(=O)[C@@H]2C[C@@H](OCC)CN2C(=O)[C@H](CCc2ccc(C(F)(F)F)c(Cl)c2)NC(=O)CN(C)C(=O)[C@@H]1Cc1ccc(C(F)(F)F)cc1 [PP0445] ([NMeL]I[Sar][Aze][NPrPhe(4-CF3)][Sar][hPhe(3-Cl-4-CF3)][Hyp](Et)[Ac4c][NMeGly(cPent)][NMeD]-NMe2; lactam N-11)	C (A compound having a KD ratio of 0.1 or more and less than 3 is denoted as C)	C (A compound having a KD ratio of 0.1 or more and less than 3 is denoted as C)	–	–	–	–
4.4	–	CC[C@H](C)[C@@H]1NC(=O)[C@H](CC(C)C)N(C)C(=O)C[C@@H](C(=O)N2CCOCC2)N(C)C(=O)[C@H](C2CCCC2)N(C)C(=O)C2(CC(F)(F)C2)NC(=O)[C@@H]2CCCN2C(=O)[C@H](CCc2cc(F)c(C(F)(F)F)c(F)c2)NC(=O)CN(C)C(=O)[C@H](Cc2ccc(C(F)(F)F)cc2)N2CCCC[C@@H](C2=O)N(C)C(=O)CN(C)C1=O [PP0562]	B (a compound having 3 or more and less than 10 is denoted as B)	B (a compound having 3 or more and less than 10 is denoted as B)	–	–	–	–
0.8	–	CCCN1C(=O)[C@@H]2CCN2C(=O)CN(C)C(=O)[C@H]([C@@H](C)CC)NC(=O)[C@H](CC(C)C)N(C)C(=O)C[C@@H](C(=O)N(C)C)N(C)C(=O)[C@H](C2CCCC2)N(C)C(=O)C2(CCCC2)NC(=O)[C@@H]2CC(F)(F)CN2C(=O)[C@H](CCc2ccc(C(F)(F)F)c(Cl)c2)NC(=O)CN(C)C(=O)[C@@H]1Cc1ccc(C(F)(F)F)cc1 [PP0442] ([NMeL]I[Sar][Aze][NPrPhe(4-CF3)][Sar][hPhe(3-Cl-4-CF3)][Pro(4,4-F2)][Ac5c][NMeGly(cPent)][NMeD]-NMe2; lactam N-11)	C (A compound having a KD ratio of 0.1 or more and less than 3 is denoted as C)	C (A compound having a KD ratio of 0.1 or more and less than 3 is denoted as C)	–	–	–	–
7.9	–	CC[C@H](C)[C@@H]1NC(=O)[C@H](CC2CC2)N(C)C(=O)C[C@@H](C(=O)N(C)C)N(C)C(=O)[C@H](C2CCCC2)N(C)C(=O)C2(CC(C)(C)C2)NC(=O)[C@@H]2CC(F)(F)CN2C(=O)[C@H](CCc2cc(F)c(C(F)(F)F)c(F)c2)NC(=O)CN(C)C(=O)[C@H](Cc2ccc(C(F)(F)F)cc2)N2CC/C=C\C[C@@H](C2=O)N(C)C(=O)CN(C)C1=O [PP1713]	–	–	–	–	A (a compound having 10 or more and less than 20 is denoted as A)	A (a compound having 10 or more and less than 20 is denoted as A)
5.5	–	CCCOC[C@H]1C(=O)N[C@@H]([C@@H](C)CC)C(=O)N(C2CC2)CC(=O)N(C)[C@H]2C/C=C\CCN(C2=O)[C@@H](Cc2ccc(C)cc2)C(=O)N(C)CC(=O)N[C@@H](CCc2ccc(C(F)(F)F)c(OC)c2)C(=O)N2C[C@H](OCC)C[C@H]2C(=O)N(C)C2(CCC2)C(=O)N(C)[C@@H](C2CCCC2)C(=O)N(C)[C@H](C(=O)N(C)C)CC(=O)N1C [PP2330]	A (a compound having 10 or more and less than 20 is denoted as A)	A (a compound having 10 or more and less than 20 is denoted as A)	–	–	–	–
